Assay results taken from patent US20060275769A1 (priority 2003, published 2006).
“Also recorded” adds a separate entry of the source.

Tests used:
KSHV-infected DMVEC [1] = details: cited from earlier work
KSHV-infected DMVEC [2] = details: cited from earlier work; remark: listed apart in the source
KSHV-infected DMVEC [3] = experiment: Inhibition of KSHV-induced spindle cell formation by PMO antisense gene silencing; assay type: cell-based, human; details: for effect on KSHV-induced spindle cell formation / phenotypic inhibition (in words): PMO antisense silencing; for Extent of PMO-induced Inhibition of Spindle Cell Formation / Phenotype Inhibition (inhibition of spindle cell formation): gene-specific PMO antisense
From the text: Antisense Gene Silencing using PMOs. […] Silencing of such genes precluded progression into the transformed phenotype when silencing occurred prior to transformation, or induced reversion to the normal state when silencing occurred after induction of the transformed state (see TABLE 2 below).
(§1) Introduction of antisense PMO into KSHV-infected DMVEC. Antisense PMO molecules, for delivery purposes, are typically converted to a paired duplex together with a partially complementary cDNA oligonucleotide in the weakly basic delivery reagent ethoxylated polyethylenimine (EPEI) (Summerton, supra). The anionic complex binds to the cell surface, is taken up by endocytosis and eventually released into the cytosol. A protocol for optimum uptake of antisense PMO in immortalized DMVEC was developed using a modification of the EPEI method. Briefly, uninfected, immortalized DMVECs were incubated for 3 hours at 37° C. with 0.6 nmol/well FITC-PMO complexed with EPEI according to the manufacturer's instructions (Genetools, LLC, One Summerton Way, Philomath, OR 97370) (e.g., 1.25 n Mol oligomer with 2.5 μl EPEI reagent per 35 mm dish, allowing for sufficient antisense uptake without non-specific EPEI-induced toxicity). The PMOs were labeled with FITC to allow for monitoring of loading efficiency by fluorescence microscopy.
(§2) Specifically, DMVEC were infected with KSHV, plated in 35 mm dishes and allowed to grow to about 90% confluence. For treatment, KSHV-infected cells were treated with the anti-c-Kit PMO-antisense oligomer-EPEI delivery reagent complex and incubated for 3 hours at 37° C. in serum-free medium to allow for oligomer uptake. A titration experiment testing a range of different oligomer/EPEI volumes was used to determine that loading 1.25 nmol oligomer with 2.5 μl EPEI reagent per 35 mm dish allowed efficient antisense uptake without non-specific EPEI-induced toxicity. Control (mock-treated) DMVEC cultures were loaded with EPEI reagent and sterile water or sterile water alone. Upon removal of the oligomer-EPEI solution, cell monolayers were rinsed in serum-free medium fed with complete medium and examined daily for one week by phase microscopy for evidence of phenotypic change.

KSHV-infected DMVEC [4] = experiment: XTT proliferation assay after PMO loading; assay type: cell-based, human; details: PMO antisense silencing
Protocol: Proliferation assays, and loading of cells with PMOs. Proliferation of KSHV-infected DMVEC was quantified using an XTT (2,3-bis-(2-methoxy-4-nitro-5-sulfophenyl)-2H-tetrazolium-5-carboxanilide, disodium salt)-based assay. KSHV-infected cells were added to Primaria 96-well trays (Becton Dickinson) at 1×10^4 or 5×10^4 cells/well. XTT (Roche, Molecular Biochemicals, Indianapolis, Ind.) was added 48 hours later according to the manufacturer's instructions. Absorbance was read after 4 to 6 hours on a microplate reader.
Briefly, cells were plated in 96-well trays at a density approaching confluence (5×10^4 cells per well) in 100 μl of complete medium. PMOs were loaded the following day in a total of 100 μl (0.5 μl PMO, 0.5 μl EPEI, 49 μl H2O and 50 μl serum free medium) with reagent mixing as described by the manufacturer (GeneTools). Controls included a FITC PMO control oligonucleotide, EPEI only or H2O only. Each variable was performed in quadruplicate. Fresh complete medium was replaced 4 hours after loading. Cells were cultured for 4 days to allow for multi-layered cell growth post-confluence in the absence of any growth inhibition. XTT was added on day 4 of culture and the a bsorbance read 4 hrs later on a microplate reader. Cell proliferation (growth) values are given as percentage inhibition values, relative to cells without PMO, which are adjusted to 100%.

KSHV-infected DMVEC [5] = experiment: Focus formation / contact inhibition by phase microscopy after c-Kit PMO loading; assay type: cell-based, human; details: 1.25 nmol PMO and 2.5 μl EPEI per 35 mm dish, one week post-loading
Protocol: Proof of principal for target validation; silencing of c-Kit gene expression.
as §2

immortalized DMVEC = experiment: Uptake and persistence of FITC-labeled PMO by fluorescence microscopy; assay type: cell-based, human; details: FITC-labeled PMO with EPEI, at 3 hours
From the text: as §1
Cellular distribution of introduced FITC-labeled POM antisense molecules. […] Specifically, the c Kit antisense PMO molecules were initially concentrated in intracellular vesicles (endosomes) at 3 hours in about 70% of the cells, and distributed within the cytoplasm at 66 hours.

KSHV-infected DMVEC [6] = experiment: Inhibition of KSHV-induced spindle cell formation by PMO antisense gene silencing; assay type: cell-based, human

Compound | effect on KSHV-induced spindle cell formation / phenotypic inhibition (in words) (KSHV-infected DMVEC [3]) | Extent of PMO-induced Inhibition of Spindle Cell Formation (KSHV-infected DMVEC [3]) | Phenotype Inhibition (inhibition of spindle cell formation) (KSHV-infected DMVEC [3]) | inhibition of KSHV-induced cellular proliferation (in words) (KSHV-infected DMVEC [4]) | also measured
Cc1ccc(NC(=O)c2ccc(CN3CCN(C)CC3)cc2)cc1Nc1nccc(-c2cccnc2)n1 [STI 571] | – | – | – | – | phenotype after removal of the compound (KSHV-infected DMVEC [1]; removal of STI 571, even after exposure to a 10 μM dose): regeneration of the transformed phenotype; focus formation (KSHV-infected DMVEC [1]; treatment to inhibit endogenous c-Kit tyrosine kinase activity): focus formation is inhibited; nonspecific cytotoxicity (cell viability controls) (KSHV-infected DMVEC [2]): not due to nonspecific cytotoxicity; proliferative response of KSHV-infected DMVEC to exogenous SCF (KSHV-infected DMVEC [2]; exogenous SCF): inhibited
AGCATGTCACGCACAGTGGCCTCAT (all phosphorodiamidate morpholino (PMO)) [ANGPTL2] | intermediate inhibitory effects | intermediate | Intermediate | – | –
AGCTCGTGCTCTGCACACTCTGCAT (all phosphorodiamidate morpholino (PMO)) [NOV] | fully reversed spindle cell formation | full | Full | – | –
AGCTTCATGTTGGAGGTGTTCG (all phosphorodiamidate morpholino (PMO)) [IFACTOR] | little or no affect on KSHV-induced spindle cell formation | none | None | relatively little or no significant inhibition | –
CGCCTCTCATCGCGGTAGCTGCG (all phosphorodiamidate morpholino (PMO); further chemistry not fully specified) [KIT] | fully reversed spindle cell formation | full | Full | substantial inhibition of KSHV-induced cellular proliferation | foci formation / contact-inhibited growth (KSHV-infected DMVEC [5]; listed as c-Kit antisense PMO oligomer): did not develop foci; also recorded: did not progress to spindle cell and foci formation; foci formation / contact-inhibited growth (KSHV-infected DMVEC [5]; listed as c-Kit-specific antisense PMO oligonucleotides): did not develop foci; cells with PMO concentrated in intracellular vesicles (uptake) (immortalized DMVEC): about 70%
GAAGAGATGCAGATCCATCGTTCTG (all phosphorodiamidate morpholino (PMO)) [RDC-1] | fully reversed spindle cell formation | full | Full | substantial inhibition of KSHV-induced cellular proliferation | effect on KSHV-induced spindle cell formation / phenotypic inhibition (in words) (KSHV-infected DMVEC [6]; listed as RDC-1-specific PMO): full phenotypic inhibition
GCCGAGGACATTGGGGAGGGAGGCG (all phosphorodiamidate morpholino (PMO)) [LMO2] | little or no affect on KSHV-induced spindle cell formation | none | – | – | –
GGAGCACGGTCCAGGCGAAGCGCAT (all phosphorodiamidate morpholino (PMO)) [LOX] | fully reversed spindle cell formation | full | Full | – | –
GGCAGCCCACTCTCTCGGCAGCATG (all phosphorodiamidate morpholino (PMO)) [IGFBP2] | fully reversed spindle cell formation | full | Full | substantial inhibition of KSHV-induced cellular proliferation | –
GGCTCCATCTTGGGCTCTGGGCTCC [FLJ14103] | fully reversed spindle cell formation | full | – | – | –
GGGTCTCCTCGGATCAGGCGCG (all phosphorodiamidate morpholino (PMO)) [INSR] | intermediate inhibitory effects | intermediate | Intermediate | substantial inhibition of KSHV-induced cellular proliferation | –
GTCAGTTTACTCATGTCATCTATTG (all phosphorodiamidate morpholino (PMO)) [KIAA0367] | intermediate inhibitory effects | intermediate | Intermediate | substantial inhibition of KSHV-induced cellular proliferation | effect on KSHV-induced spindle cell formation / phenotypic inhibition (in words) (KSHV-infected DMVEC [6]; listed as KIAA0367-specific PMO): intermediate phenotypic inhibition
Osteopontin | – | – | None | relatively little or no significant inhibition | –
TGAATAAGCAACAATGTAGCTTCAT (all phosphorodiamidate morpholino (PMO)) [MFAP3] | little or no affect on KSHV-induced spindle cell formation | none | None | relatively little or no significant inhibition | effect on KSHV-induced spindle cell formation / phenotypic inhibition (in words) (KSHV-infected DMVEC [6]; listed as MFAP-specific PMO): no phenotypic inhibition
TTAACTCCCATCCTACGTTTAGTCA (all phosphorodiamidate morpholino (PMO)) [Neuritin] | fully reversed spindle cell formation | full | Full | substantial inhibition of KSHV-induced cellular proliferation | –
